Experimental data published in patent US20150342901A1, “COMPOSITION COMPRISING NATURAL POLYPHENOL COMPOUNDS, AND COMPOSITION FOR ORAL ADMINISTRATION COMPRISING SAME” (SAMSUNG FINE CHEMICALS CO., LTD., priority 2012, published 2015).
Values after ≈ are worked out from the molar mass of the structure shown.

Experiment: Solubility of poorly water-soluble natural polyphenolic compound (PSNPPC) in water
Assay type: physicochemical
Details: for solubility: PSNPPC alone, solubility = amount (mg) of solute that dissolves in 1 mL of water at 37° C.
Description: In the present specification. “solubility” refers to an amount (mg) of a solute (PSNPPC) that dissolves in 1 mL of water at 37° C., which is similar to a human body temperature.
Solubility of 3 types of poorly water-soluble natural polyphenolic compounds (PSNPPC) (a product of Naturex SA of France) were measured, and the results thereof are shown in Table 1.

Row | solubility | Solubility (@37° C.) | Compound
1 | 4 µg/mL (≈ 10.9 µM) |  | COc1cc(/C=C/C(=O)CC(=O)/C=C/c2ccc(O)c(OC)c2)ccc1O [Curcumin, curcumin]
2 | 87 µg/mL (≈ 381 µM) |  | Oc1ccc(C=Cc2cc(O)cc(O)c2)cc1 [Resveratrol, resveratrol]
3 |  | 0.008 | silymarin
